In patent US11248023B2 (NEURACLE SCIENCE CO., LTD., priority 2015, dated 2022):
Blank lines part the entries; values can stand above or below the compound they belong to. Square brackets hold non-standard residues; d marks the D form. Peptide text beside a SMILES is read from it. PEG = not defined here

What was measured:
[1] = Stability in 100% fetal bovine serum, residual potency via IP3 production in GALR2-expressing cells; settings: 37° C., 0-72 h, IP3 production in GALR2-expressing cells
Experimental: The stability of the spexin-based mutant peptides was investigated. To this end, first, each modified mutant peptide at an initial concentration 10 μM was allowed to react in 100% fetal bovine serum (FBS) at 37° C. for 0, 3, 6, 12, 24, 48, and 72 h. Thereafter, the potencies of the mutant peptide toward GALR2 were determined via inositol 1,4,5-triphosphate (IP3) production in GALR2-expressing cells. For the IP3 assay, cells were seeded in 12-well plates at a density of 2.5×10^5 cells/well and then the next day, cells were treated with a mixture of 1 μg of GALR2-encoding plasmid DNA and Lipofectamine 2000 (Invitrogen). On day following treatment, cells were incubated in M199 media containing 1% FBS, 1% L-glutamine, 1% antibiotic, and myo-^3H inositol 1 μCi/well for 20 h to radioactively label inositol phosphate. After this stage was finished, cells were allowed to react in buffer A (140 mM NaCl, 20 mM Hepes, 4 mM KCl, 8 mM D-glucose, 1 mM MgCl2, 1 mM CaCl2), 1 mg/ml free fatty acid bovine serum albumin, and 10 mM LiCl at pH 7.2) for 30 min. After the mutant peptide was allowed to react in 100% FBS, cells were treated with the mutant peptide for 40 min at 37° C. Media was removed, and reactions were terminated by addition of 1 ml of 10 mM cold formic acid to each well. The plates were allowed to stand at 4° C. for 30 min. Then, the resulting extracts were transferred to 6-mL plastic tubes containing 500 μl AG1-8X anion exchange columns. The tubes were gently mixed with a vortexer, and the supernatants were removed from the labeled mixture. Two washes with 1 ml of triple-distilled water were performed followed by two additional washes with 60 mM ammonium formate/5 mM sodium tetraborate. The radioactively labeled mixture was eluted from the column with 1 ml of 1 M ammonium formate/0.1 M formic acid (1 mL), and 800 μl from the elution were taken from each tube and transferred into scintillation vials. Then, 2 ml of scintillation cocktail solution (Ultima Gold™, Perkin Elmer, Waltham Mass., USA) was added to each sample. The radioactivity of the mixture solution of the radioactively labeled mixture and the scintillation cocktail solution was measured using a TRI carb 2100TR liquid scintillation analyzer (Packard).

[2] = Open field test (OFT) in anxiety-induced mice; assay type: in vivo; settings: vs DMSO
Description: The effect of the GALR2 agonist on anxiety reduction was investigated by the OFT for simultaneously measuring movement and anxiety (FIG. 13). The OFT is based on the behavior of mice that prefer to stay at the periphery rather than at the center of a quadrangular area. After mice were placed at the center of a quadrangular area, the proportion of the time spent in the center (“% time in center”), the proportion of the moving distance in the center (“% distance in center”), and the total moving distance (“total distance”) were measured for 10 min from the time when the animals moved to the periphery. The results were divided into two equal periods (5 min each) for analysis. 2-3 h after 4 μg of DMSO as a control or the GALR2 agonist dN1-Qu was administered to the lateral ventricle of animals, which had previously been evoked by repeated electric shocks to induce anxiety, anxiety and movement were measured.

GALR2 = molecular target: T1, GALR2 (Homo sapiens, UniProt O43603); assay: SRE-luc assay in HEK293-Gqi cells expressing GALR2; assay type: cell-based; settings: GALR2 versus GALR3
T1 construct: expressed in transfected cells
T1 sequence (O43603 1-387): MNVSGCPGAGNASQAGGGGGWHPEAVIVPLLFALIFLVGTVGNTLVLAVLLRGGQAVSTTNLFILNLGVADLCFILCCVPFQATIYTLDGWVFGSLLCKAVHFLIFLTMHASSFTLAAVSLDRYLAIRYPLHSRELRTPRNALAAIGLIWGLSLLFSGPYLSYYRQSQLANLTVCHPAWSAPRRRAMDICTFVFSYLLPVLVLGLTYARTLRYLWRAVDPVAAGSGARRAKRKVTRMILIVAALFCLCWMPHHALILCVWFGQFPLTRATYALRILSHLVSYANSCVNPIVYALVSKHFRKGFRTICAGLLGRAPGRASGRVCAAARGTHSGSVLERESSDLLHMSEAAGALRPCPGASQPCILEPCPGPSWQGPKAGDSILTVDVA
Description: The HEK293-Gqi stable cell line is a cell line in which the C-terminus of Gq is substituted with 3 amino acids of G to convert the signals of G to Gq signaling pathways. […] GALR subtypes 1 and 3 induce inhibitory G-coupled signaling, while GALR subtype 2 triggers stimulatory Gq-coupled signaling. This difference explains the use of the HEK293-Gqi stable cell line in which the C-terminus of Gq is substituted with 3 amino acids of G to convert the signals of Gi to Gq signaling pathways.
GALR subtypes 1 and 3 induce inhibitory G-coupled signaling, while GALR subtype 2 triggers stimulatory Gq-coupled signaling. This difference explains the use of the HEK293-Gqi stable cell line in which the C-terminus of Gq is substituted with 3 amino acids of G to convert the signals of G to Gq signaling pathways. The activities of the receptors were measured using an SRE-luc assay system designed to express luciferase (luc) by serum responsive element (SRE) promoters. Light caused by a reaction between expressed luciferase and luciferin as a substrate was detected using a luminometer so that receptor subtype-specific or ligand-specific cellular activities were observed. One day after HEK293-Gqi cells were seeded in 48-well plates at a density of 2×10^4 cells/well, plasmid DNA and SRE-luc plasmid DNA, which encode GALR2 and GALR3, respectively, were mixed in a ratio of 1:1 (75 ng+75 ng)/well, and treated with Effectene reagent (2 μl/well). After 3 h, media were replaced with DMEM media supplemented with 10% FBS. After 24 h, the DMEM media were replaced with FBS-free DMEM media. After 16 h, each constructed spexin-based mutant peptide was further incubated at 37° C. for 6 h. After this stage was finished, cells were washed with PBS and lysed by the addition of 100 μl of lysis buffer (0.1% triton X-100, 0.2M Tris, pH 8.0) at room temperature for 20 min. The luciferase activity was determined using a synergy 2 Multi-mode microplate reader (BioTek, Winooski, Vt., USA) with automatic injection of a luciferin solution (0.5 M MgCl2, 0.1 M ATP, 0.05 M D-luciferin, 1 M KH2PO4, pH 7.8).

[3] = system: neurons in the arcuate nucleus; assay: c-fos immunohistochemistry, arcuate nucleus, after ventricular administration; assay type: in vivo, mice; settings: 0.4, 4, and 40 μg to the ventricle, 1 h
[4] = Sucrose preference test (SPT); assay type: in vivo, mice; settings: 2 days
Experimental: The effect of the GALR2 agonist dN1-Qu on addiction reduction was investigated. In the same manner as in Example 3, a cannula was inserted into the lateral ventricle of mice. After injection of dimethyl sulfoxide (DMSO) and 0.4, 4, and 40 μg of dN1-Qu, the consumptions of water and 1% sucrose solution were measured for 2 days by the sucrose preference test (SPT) for addiction evaluation. According to this test, tap water and sucrose solution were filled in respective bottles and weighed before injection of the agonist. After free access to the fluids for 2 days, the bottles were weighed to compare the total consumption of the fluids and the percentage of the consumed sucrose solution in the total fluid consumption.

neurons in the amygdala = assay: c-fos immunohistochemistry, amygdala and other brain regions; assay type: in vivo, mice; settings: 0.4, 4, and 40 μg to the ventricle, 1-2 h
Experimental: Then, the brain was placed in a mold for brain tissue, transferred to and frozen in an isopentane solution kept cold on dry ice with an OCT composite containing 30% sucrose solution, and stored at −80° C. before use. The frozen brain tissue was sliced at 40 μm using a cryostat microtome, followed by immunohistochemistry.

[5] = Dietary intake and body weight change after intracerebroventricular administration; assay type: in vivo, mice
Experimental: C57BL/6J black male mice (9 weeks of age) were acquired from Orientbio (www.orient.co.kr). Mice were housed in a cage at 20-24° C. and 40-70% relative humidity under a normal 12:12 light-dark cycle (lights onset at 8:00 am), with food and water available ad libitum. All experiments were designed to minimize the number of animals. Animals were anesthetized to minimize their suffering in accordance with the Guidelines for Ethical Care and Use of Experimental Animals, which were approved by the institutional animal care and use committee of Korea University. For intracerebroventricular injection, mice were anesthetized with sodium pentobarbital (50 mg/kg, i.p.), mounted on a stereotaxic apparatus, and implanted with a 26-gauge stainless steel cannula into the right side of the lateral ventricle. Two jewelry screws were implanted into the skull as anchors, and the whole assembly was affixed to the skull with dental cement. Mice were recovered at least 2 weeks before experimentation. The GALR2 agonist was administered using a Hamilton syringe at a rate of 0.5 μl/min. Dietary intakes and weight changes were determined by measuring the weights of feed and mice before agonist administration, measuring the weights of the feed over 1, 2, 4, 12, and 24 h, and comparing the weight of mice after 24 h with the initial weight.
The effects of the GALR2 agonist on feeding behaviors and changes in body weight were investigated by the following procedure. First, a cannula was inserted into the third ventricle.

[6] = Elevated plus maze (EPM) test; assay type: in vivo, mice; settings: 4 μg lateral ventricle, 2-3 h after administration, vs DMSO
Experimental: The effect of the GALR2 agonist dN1-Qu on recovery from anxiety disorder was investigated. In the same manner as in Example 3, a cannula was inserted into the lateral ventricle of mice. 2-3 h after dimethyl sulfoxide (DMSO) as a control or 4 μg of the GALR2 agonist dN1-Qu as an experimental group was administered, the elevated plus maze (EPM) test was conducted to measure anxiety/obsession. The EPM test uses a cross-shaped maze elevated above the floor with closed arms, open arms, and a center and is based on the behavior of mice that prefer to remain in the closed arms. Anxiety is judged to be lower when a larger number of mice remain in the open arms. After mice was placed on the plus maze, the time spent in the open arms (“time in open arm”), the number of mice entering the open arms (“number of open arm entry”), and the total movement (“number of center crossing”) were measured for the first 15 min. The results for the last 10 min were used for analysis.

[7] = system: neurons in the amygdala and arcuate nucleus; assay: Neuron activity after nasal inhalation of GALR2 agonist; assay type: in vivo, mice; settings: 8 μg nasal inhalation, 1-2 h; like intracerebroventricular injection
Experimental: 1-2 h after nasal inhalation, the results were recorded. The results of nasal inhalation were compared with those of intracerebroventricular injection.

[8] = 3 μg into the third ventricle, 24 h, compared to spexin-administered mice and control
[9] = concentrations of 0.5, 1, and 3

stability in serum (100% FBS) [1]: increased stability | specificity for GALR2 (GALR2): specificity for GALR2
Compound: CC(C)C[C@H](NC(=O)[C@H](C)NC(=O)[C@H](C)NC(=O)[C@H](CC(N)=O)NC(=O)[C@@H]1CCCN1C(=O)[C@@H](NC(=O)[C@H](Cc1c[nH]c2ccccc12)NC(=O)[C@H](N)CC(N)=O)[C@@H](C)O)C(=O)N[C@@H](Cc1ccc(O)cc1)C(=O)N[C@@H](CC(C)C)C(=O)N[C@@H](Cc1ccccc1)C(=O)NCC(=O)N1CCC[C@H]1C(=O)N[C@@H](CCC(N)=O)C(N)=O [dN1-Qu] (H-[dN]WTPNAALYLFGPQ-NH2)
% distance in center ([2]; first 5-min period): increased | total distance ([2]; first 5-min period): no difference | % distance in center ([2]; second 5-min period): increased | c-fos expressing neurons in the arcuate nucleus [3]: increase in the number of c-fos expressing neurons | total consumption of the fluids [4]: no difference | consumption of sucrose ([4]; 1% sucrose solution): considerably reduced | sucrose preference (consumed sucrose solution in total fluid consumption) ([4]; 1% sucrose, 0.4, 4, and 40 μg lateral ventricle, control ~70%): ≤ 60% | c-fos expressing neurons in the amygdala (neurons in the amygdala): increase in the number of c-fos expressing neurons | neurons in other emotion-regulating brain regions (neurons in the amygdala): not activated | change in body weight [5, 8]: weight loss was effectively induced | dietary intake [5, 8]: significantly decreased | number of center crossing [6]: no difference | number of open arm entry [6]: increased | time in open arm [6]: increased

specificity for GALR2 (GALR2): specificity for GALR2
Compound: PEG-NWTdANAALYLFGPdQ-NH2 ({PEG}-NWT[dA]NAALYLFGP[dQ]-NH2; reading uncertain) [PEG-se]
stability in serum (100% FBS) [1]: increased stability | activity of neurons in the amygdala and arcuate nucleus [7]: increase the activity of neurons | effect on dietary intake after GALR2 antagonist M871 ([5]; 3 μg following 10 μg of M871): disappeared | effect on weight loss after GALR2 antagonist M871 ([5]; 3 μg following 10 μg of M871): disappeared | dietary intake [5, 9]: dietary intakes and weight losses were observed | weight loss [5, 9]: dietary intakes and weight losses were observed
